Experimental data as given in patent publication US20210353579A1, “HIGH PENETRATION COMPOSITIONS AND USES THEREOF” (Techfields Pharma Co., Ltd., priority 2006, published 2021).

Legend:
[1] = tested on: rats (SLAC/GK, type 2 diabetes); assay: Blood glucose in type 2 diabetes rats, transdermal; format: in vivo, rat; settings: diabetic rats (SLAC/GK); for Blood glucose, Average: average second to fifth week, no fasting, equal to 20 mg/kg of NSAIAs once per day for 5 weeks; for Blood glucose, Baseline: equal to 20 mg/kg of NSAIAs once per day
Text: (§1) HPPs lower blood glucose level in rat models (SLAC/GK, type 2 diabetes, n=7). 50% acetone solution of diethylaminoethyl acetylsalicylate.acetylsalicylic acid salt (P-1, in acetone); 4-acetamidophenyl salicylyldimethylaminobutyrate.HCl (P-6), diethylaminoethyl 5-(2,4-difluorophenyl) acetylsalicylate.5-(2,4-difluorophenyl).acetylsalicylic acid salt (P-8), diethylaminoethyl salicylsalicylate.AcOH (P-9), diethylaminoethyl salicylate.AcOH (P-10), diethylaminoethyl 5-acetamido-acetylsalicylate (P-58), diethylaminoethyl acetylsalicylsalicylate.acetylsalicylsalicylic acid salt (P-59), diethylaminoethyl acetylsalicylsalicylate.acetylsalicylsalicylsalicylic acid salt (P-60) (equal to of 20 mg/kg of NSAIAs) are administered transdermally to the backs (about 1.5 cm^2) of rats (fur was shaved) once per day (at 8 am) for 5 weeks. The blood glucose levels are measured once every 3 days at 3 pm (no fasting) from the second week to the fifth week (Table 24). The blood lipid levels are measured at the end of the fifth week (Table 25).

[2] = tested on: rats (SLAC/GK, type 2 diabetes); assay: Blood lipid in type 2 diabetes rats, transdermal; format: in vivo, rat; settings: for Cholesterol (HDL), Baseline / Cholesterol (total), Baseline / Triglycerides, Baseline: equal to 20 mg/kg of NSAIAs; for Cholesterol (HDL), Average / Cholesterol (total), Average / Triglycerides, Average: end of the fifth week, equal to 20 mg/kg of NSAIAs once per day
Text: as §1

[3] = tested on: rats (SLAC/GK, type 2 diabetes); assay: Blood glucose in type 2 diabetes rats, oral with food; format: in vivo, rat; settings: for Blood glucose, Diabetic rats, Average: average second to fifth week, no fasting, equal to 20 mg/kg of NSAIAs every day for 5 weeks; for Blood glucose, Diabetic rats, Baseline: equal to 20 mg/kg of NSAIAs
Text: (§2) 20% acetone solution of diethylaminoethyl acetylsalicylate.acetylsalicylic acid salt (P-1, in acetone); 4-acetamidophenyl salicylyldimethylaminobutyrate.HCl (P-6), diethylaminoethyl 5-(2,4-difluorophenyl) acetylsalicylate.5-(2,4-difluorophenyl) acetylsalicylic acid salt (P-8), diethylaminoethyl salicylsalicylate.AcOH (P-9), diethylaminoethyl salicylate.AcOH (P-10), diethylaminoethyl 5-acetamido-acetylsalicylate (P-58), diethylaminoethyl acetylsalicylsalicylate. acetylsalicylsalicylic acid salt (P-59), diethylaminoethyl acetylsalicylsalicylate. acetylsalicylsalicylsalicylic acid salt (P-60) (equal to of 20 mg/kg of NSAIAs) were mixed with food and were orally administered to the rats (SLAC/GK, type 2 diabetes, n=7) with food every day for 5 weeks. The blood glucose levels were measured once every 3 days at 3 pm (no fasting) from the second week to the fifth week. The blood lipid levels were measured at the end of the fifth week.

[4] = tested on: rats (SLAC/GK, type 2 diabetes); assay: Blood lipid in type 2 diabetes rats, oral with food; format: in vivo, rat; settings: for Cholesterol (HDL), Baseline / Cholesterol (total), Baseline / Triglycerides, Baseline: equal to 20 mg/kg of NSAIAs; for Cholesterol (HDL), Average / Cholesterol (total), Average / Triglycerides, Average: end of the fifth week, equal to 20 mg/kg of NSAIAs every day
Text: as §2

[5] = tested on: mice (SLAC:NOD-IDDM, type 1 diabetes); assay: Blood glucose in type 1 diabetes mice, transdermal; format: in vivo, mouse; settings: for Blood glucose, Average: average fourth to seventh week, no fasting, equal to 30 mg/kg of NSAIAs once per day for 7 weeks; for Blood glucose, Baseline: equal to 30 mg/kg of NSAIAs
Text: The pro-drugs in this invention lower blood glucose levels in mouse models (SLAC:NOD-IDDM, type 1 diabetes, n=7). 50% acetone solution of diethylaminoethyl acetylsalicylate.acetylsalicylic acid salt (P-1, in acetone); 4-acetamidophenyl salicylyldimethylaminobutyrate.HCl (P-6), diethylaminoethyl 5-(2,4-difluorophenyl) acetylsalicylate.5-(2,4-difluorophenyl) acetylsalicylic acid salt (P-8), diethylaminoethyl salicylsalicylate.AcOH (P-9), diethylaminoethyl salicylate.AcOH (P-10), diethylaminoethyl 5-acetamido-acetylsalicylate (P-58), diethylaminoethyl acetylsalicylsalicylate. acetylsalicylsalicylic acid salt (P-59), diethylaminoethyl acetylsalicylsalicylate. acetylsalicylsalicylsalicylic acid salt (P-60) (equal to of 30 mg/kg of NSAIAs) were administered transdermally to the backs (about 1.5 cm^2) of mice (fur was shaved) once per day (at 8 am) for 7 weeks. The blood glucose levels were measured once every 3 days at 3 pm (no fasting) from the fourth week to the seventh week.

normal rats [6] = assay: Blood glucose in normal rats, transdermal; format: in vivo, rat; settings: for Blood glucose, Average: normal rats (second Average line of Table 24), average second to fifth week, equal to 20 mg/kg of NSAIAs once per day; for Blood glucose, Baseline: normal rats (second Baseline line of Table 24), equal to 20 mg/kg of NSAIAs
Text: as §1, with “25). […]” for “25).”

normal rats [7] = assay: Blood glucose in normal rats, oral with food; format: in vivo, rat; settings: for Blood glucose, Normal rats, Average: average second to fifth week, equal to 20 mg/kg of NSAIAs every day; for Blood glucose, Normal rats, Baseline: equal to 20 mg/kg of NSAIAs
[8] = tested on: Human breast cancer cells (BCAP-37); assay: Human breast cancer xenograft in nude mice, topical; settings: day 42, 30 μl of 5% (1.5 mg) topically every 8 hours from day 14; for Tumor size: control 800 ± 100
Method: Human breast cancer cells (BCAP-37, 2-3 mm^3 of tumor tissue was used in each mouse) are subcutaneously xenografted into the front leg of nude mice (BALB, 12 groups, 7 mice each group). […] Then 30 μl of 5% (equal to 1.5 mg of the HPPs) diethylaminoethyl acetylsalicylate.acetylsalicylic acid salt (P-1, in acetone); 1-piperidinepropyl 2[(2,6-dichlorophenyl)amino]benzene acetate.AcOH (P-2, in water), 1-pyrrolidinepropyl 2-(3-benzoylphenyl) propionate.AcOH (P-3, in water), 4-piperidinemethyl 2-(3-phenoxyphenyl)propionate.AcOH (P-4, in water), 3-piperidinemethyl 2-(ρ-isobutylphenyl) propionate.AcOH (P-5, in water), diethylaminoethyl 1-(p-chlorobenzoyl)-5-methoxy-2-methylindole 3-acetate.AcOH (P-11, in water), 2-(4-morpholinyl)ethyl (Z)-5-fluoro-2-methyl-1-[(4-methylsulfinyl) phenylmethylene]-1H-indene-3-acetate.AcOH (P-12, in water), diethylaminoethyl

| SMILES | Blood glucose, Average [1] | Blood glucose, Baseline [1] | Cholesterol (HDL), Baseline [2] | Cholesterol (total), Baseline [2] | Triglycerides, Baseline [2] | Cholesterol (HDL), Average [2] | Cholesterol (total), Average [2] | Triglycerides, Average [2] | Blood glucose, Diabetic rats, Average [3] | Blood glucose, Diabetic rats, Baseline [3] | Cholesterol (HDL), Baseline [4] | Cholesterol (total), Baseline [4] | Triglycerides, Baseline [4] | Cholesterol (HDL), Average [4] | Cholesterol (total), Average [4] | Triglycerides, Average [4] | Blood glucose, Average [5] | Blood glucose, Baseline [5] | Blood glucose, Average (normal rats [6]) | Blood glucose, Baseline (normal rats [6]) | other results |
| --- | --- | --- | --- | --- | --- | --- | --- | --- | --- | --- | --- | --- | --- | --- | --- | --- | --- | --- | --- | --- | --- |
| CC(=O)Oc1ccc(-c2ccc(F)cc2F)cc1C(=O)O.CCN(CC)CCOC(=O)c1cc(-c2ccc(F)cc2F)ccc1OC(C)=O [P-8, diethylaminoethyl 5-(2,4-difluorophenyl) acetylsalicylate.5-(2,4-difluorophenyl) acetylsalicylic acid salt] | 8.1 ± 1 mmol/L | 17.1 ± 3 mmol/L | 1.6 ± 0.2 mmol/L | 7.6 ± 0.6 mmol/L | 5.6 ± 0.6 mmol/L | 1.5 ± 0.2 mmol/L | 5.3 ± 0.3 mmol/L | 1.9 ± 0.2 mmol/L | 7.3 ± 1 mmol/L | 16.1 ± 3 mmol/L | 1.4 ± 0.2 mmol/L | 7.8 ± 0.6 mmol/L | 5.6 ± 0.7 mmol/L | 1.3 ± 0.2 mmol/L | 5.7 ± 0.3 mmol/L | 1.8 ± 0.2 mmol/L | 9.1 ± 1 mmol/L | 29.1 ± 5 mmol/L | 6.8 ± 1 mmol/L | 7.1 ± 1 mmol/L | Blood glucose, Normal rats, Average (normal rats [7]): 6.8 ± 1 mmol/L; Blood glucose, Normal rats, Baseline (normal rats [7]): 7.0 ± 1 mmol/L |
| CC(=O)O.CC1=C(CC(=O)OCCN2CCOCC2)c2cc(F)ccc2/C1=C\c1ccc([S+](C)[O-])cc1 (stereo not drawn) [P-12, 2-(4-morpholinyl)ethyl (Z)-5-fluoro-2-methyl-1-[(4-methylsulfinyl)phenylmethylene]-1H-indene-3-acetate.AcOH] |  |  |  |  |  |  |  |  |  |  |  |  |  |  |  |  |  |  |  |  | Tumor size [8]: 250 ± 50 mm^3 |
| CC(=O)O.O=C(OCCCN1CCCC1)c1ccccc1Nc1cccc(C(F)(F)F)c1 [P-48] |  |  |  |  |  |  |  |  |  |  |  |  |  |  |  |  |  |  |  |  | Mouse weight ([8]; control 22 ± 2): 22 ± 3 g; Tumor size [8]: 290 ± 50 mm^3 |
| CCN(CC)CCOC(=O)c1cc(NC(C)=O)ccc1OC(C)=O [P-58, diethylaminoethyl 5-acetamido-acetylsalicylate] | 8.4 ± 1 mmol/L | 17.1 ± 3 mmol/L | 1.3 ± 0.1 mmol/L | 7.8 ± 0.5 mmol/L | 5.3 ± 0.5 mmol/L | 1.4 ± 0.2 mmol/L | 5.6 ± 0.4 mmol/L | 2.4 ± 0.2 mmol/L | 8.4 ± 1 mmol/L | 17.0 ± 3 mmol/L | 1.8 ± 0.1 mmol/L | 7.9 ± 0.5 mmol/L | 5.5 ± 0.5 mmol/L | 1.6 ± 0.2 mmol/L | 5.8 ± 0.4 mmol/L | 1.8 ± 0.2 mmol/L | 7.9 ± 1 mmol/L | 27.1 ± 3 mmol/L | 7.1 ± 1 mmol/L | 6.9 ± 1 mmol/L | Blood glucose, Normal rats, Average (normal rats [7]): 7.2 ± 1 mmol/L; Blood glucose, Normal rats, Baseline (normal rats [7]): 6.9 ± 1 mmol/L |
| CC(=O)Oc1ccccc1C(=O)Oc1ccccc1C(=O)Oc1ccccc1C(=O)O.CCN(CC)CCOC(=O)c1ccccc1OC(=O)c1ccccc1OC(C)=O [P-60, diethylaminoethyl acetylsalicylsalicylate.acetylsalicylsalicylsalicylic acid salt] | 8.6 ± 1 mmol/L | 15.5 ± 3 mmol/L | 1.3 ± 0.2 mmol/L | 7.3 ± 0.6 mmol/L | 5.3 ± 0.6 mmol/L | 1.5 ± 0.2 mmol/L | 5.6 ± 0.3 mmol/L | 2.5 ± 0.2 mmol/L | 7.9 ± 1 mmol/L | 16.5 ± 3 mmol/L | 1.5 ± 0.2 mmol/L | 7.5 ± 0.5 mmol/L | 5.2 ± 0.5 mmol/L | 1.6 ± 0.2 mmol/L | 5.5 ± 0.3 mmol/L | 2.5 ± 0.2 mmol/L | 8.6 ± 1 mmol/L | 25.5 ± 3 mmol/L | 7.5 ± 1 mmol/L | 6.6 ± 1 mmol/L | Blood glucose, Normal rats, Average (normal rats [7]): 7.3 ± 1 mmol/L; Blood glucose, Normal rats, Baseline (normal rats [7]): 6.8 ± 1 mmol/L |
